# Test results from PubChem BioAssay (NCI).
#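 Cells were grown in 96-well plates and exposed to each compound for 48 hours at five concentrations; endpoints were interpolated linearly between bracketing concentrations, or set to the highest concentration if not reached. At the GI50, growth is halved. Definition used: TGI = concentration required for complete inhibition of growth.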
# Key:
# Test in all cases: NCI tumour cell line growth inhibition, 48 h
# 786-0 renal = system: 786-0 renal
# A498 renal = system: A498 renal
# A549 NSCLC = system: A549 NSCLC
# ACHN renal = system: ACHN renal
# BT-549 breast = system: BT-549 breast
# CAKI-1 renal = system: CAKI-1 renal
# CCRF-CEM leukemia = system: CCRF-CEM leukemia
# COLO 205 colon = system: COLO 205 colon
# DU-145 prostate = system: DU-145 prostate
# EKVX NSCLC = system: EKVX NSCLC
# HCC-2998 colon = system: HCC-2998 colon
# HCT-116 colon = system: HCT-116 colon
# HCT-15 colon = system: HCT-15 colon
# HL-60(TB) leukemia = system: HL-60(TB) leukemia
# HOP-62 NSCLC = system: HOP-62 NSCLC
# HOP-92 NSCLC = system: HOP-92 NSCLC
# HS 578T breast = system: HS 578T breast
# HT29 colon = system: HT29 colon
# IGROV1 ovarian = system: IGROV1 ovarian
# K-562 leukemia = system: K-562 leukemia
# KM12 colon = system: KM12 colon
# LOX IMVI melanoma = system: LOX IMVI melanoma
# M14 melanoma = system: M14 melanoma
# MALME-3M melanoma = system: MALME-3M melanoma
# MCF7 breast = system: MCF7 breast
# MDA-MB-231 breast = system: MDA-MB-231 breast
# MDA-MB-435 = system: MDA-MB-435
# MOLT-4 leukemia = system: MOLT-4 leukemia
# NCI-H226 lung = system: NCI-H226 lung
# NCI-H23 lung = system: NCI-H23 lung
# NCI-H460 lung = system: NCI-H460 lung
# NCI-H522 lung = system: NCI-H522 lung
# NCI/ADR-RES ovarian = system: NCI/ADR-RES ovarian
# OVCAR-3 ovarian = system: OVCAR-3 ovarian
# OVCAR-4 ovarian = system: OVCAR-4 ovarian
# OVCAR-5 ovarian = system: OVCAR-5 ovarian
# OVCAR-8 ovarian = system: OVCAR-8 ovarian
# PC-3 prostate = system: PC-3 prostate
# RPMI-8226 leukemia = system: RPMI-8226 leukemia
# RXF 393 renal = system: RXF 393 renal
# SF-268 CNS = system: SF-268 CNS
# SF-295 CNS = system: SF-295 CNS
# SF-539 CNS = system: SF-539 CNS
# SK-MEL-2 melanoma = system: SK-MEL-2 melanoma
# SK-MEL-28 melanoma = system: SK-MEL-28 melanoma
# SK-MEL-5 melanoma = system: SK-MEL-5 melanoma
# SK-OV-3 ovarian = system: SK-OV-3 ovarian
# SN12C renal = system: SN12C renal
# SNB-19 CNS = system: SNB-19 CNS
# SNB-75 CNS = system: SNB-75 CNS
# SR leukemia = system: SR leukemia
# SW-620 colon = system: SW-620 colon
# T-47D breast = system: T-47D breast
# TK-10 renal = system: TK-10 renal
# U251 CNS = system: U251 CNS
# UACC-257 melanoma = system: UACC-257 melanoma
# UACC-62 melanoma = system: UACC-62 melanoma
# UO-31 renal = system: UO-31 renal
smiles,measurement,setting,value
Nc1nc(-c2ccc(Cl)cc2)cc(-c2ccc(Cl)cc2)c1-c1nc2ccccc2o1,GI50,786-0 renal,17.9 µM
same,TGI,786-0 renal,36.4 µM
same,GI50,A498 renal,19.6 µM
same,TGI,A498 renal,34.6 µM
same,GI50,A549 NSCLC,15.5 µM
same,TGI,A549 NSCLC,40.7 µM
same,GI50,ACHN renal,17.4 µM
same,TGI,ACHN renal,33.2 µM
same,GI50,BT-549 breast,18.1 µM
same,TGI,BT-549 breast,33.4 µM
same,GI50,CAKI-1 renal,20 µM
same,TGI,CAKI-1 renal,35.9 µM
same,GI50,CCRF-CEM leukemia,11.4 µM
same,TGI,CCRF-CEM leukemia,34.1 µM
same,GI50,COLO 205 colon,21 µM
same,TGI,COLO 205 colon,39.5 µM
same,GI50,DU-145 prostate,17.2 µM
same,TGI,DU-145 prostate,36.6 µM
same,GI50,EKVX NSCLC,16.3 µM
same,TGI,EKVX NSCLC,31.4 µM
same,GI50,HCC-2998 colon,16.9 µM
same,TGI,HCC-2998 colon,33.3 µM
same,GI50,HCT-116 colon,14.8 µM
same,TGI,HCT-116 colon,30.5 µM
same,GI50,HCT-15 colon,17.2 µM
same,TGI,HCT-15 colon,34.8 µM
same,GI50,HL-60(TB) leukemia,17.9 µM
same,TGI,HL-60(TB) leukemia,37.2 µM
same,GI50,HOP-62 NSCLC,13 µM
same,TGI,HOP-62 NSCLC,27.1 µM
same,GI50,HOP-92 NSCLC,6.24 µM
same,TGI,HOP-92 NSCLC,21.2 µM
same,GI50,HS 578T breast,23.5 µM
same,TGI,HS 578T breast,53.1 µM
same,GI50,HT29 colon,11.1 µM
same,TGI,HT29 colon,36.1 µM
same,GI50,IGROV1 ovarian,16.1 µM
same,TGI,IGROV1 ovarian,34.3 µM
same,GI50,K-562 leukemia,13.7 µM
same,TGI,K-562 leukemia,52.3 µM
same,GI50,KM12 colon,12.2 µM
same,TGI,KM12 colon,27.2 µM
same,GI50,LOX IMVI melanoma,18.7 µM
same,TGI,LOX IMVI melanoma,36.5 µM
same,GI50,M14 melanoma,17.4 µM
same,TGI,M14 melanoma,34.4 µM
same,GI50,MALME-3M melanoma,14.4 µM
same,TGI,MALME-3M melanoma,29.9 µM
same,GI50,MCF7 breast,10.6 µM
same,TGI,MCF7 breast,35.7 µM
same,GI50,MDA-MB-231 breast,15.8 µM
same,TGI,MDA-MB-231 breast,31.3 µM
same,GI50,MDA-MB-435,18.3 µM
same,TGI,MDA-MB-435,36.1 µM
same,GI50,MOLT-4 leukemia,12.1 µM
same,TGI,MOLT-4 leukemia,27.4 µM
same,GI50,NCI-H226 lung,19.1 µM
same,TGI,NCI-H226 lung,34.9 µM
same,GI50,NCI-H23 lung,17.8 µM
same,TGI,NCI-H23 lung,37.3 µM
same,GI50,NCI-H460 lung,16.8 µM
same,TGI,NCI-H460 lung,39.6 µM
same,GI50,NCI-H522 lung,15 µM
same,TGI,NCI-H522 lung,30.5 µM
same,GI50,NCI/ADR-RES ovarian,14.5 µM
same,TGI,NCI/ADR-RES ovarian,30.9 µM
same,GI50,OVCAR-3 ovarian,18.6 µM
same,TGI,OVCAR-3 ovarian,35.5 µM
same,GI50,OVCAR-4 ovarian,18.5 µM
same,TGI,OVCAR-4 ovarian,35.5 µM
same,GI50,OVCAR-5 ovarian,20.7 µM
same,TGI,OVCAR-5 ovarian,39.1 µM
same,GI50,OVCAR-8 ovarian,18.4 µM
same,TGI,OVCAR-8 ovarian,36.3 µM
same,GI50,PC-3 prostate,13.2 µM
same,TGI,PC-3 prostate,27.1 µM
same,GI50,RPMI-8226 leukemia,13.7 µM
same,TGI,RPMI-8226 leukemia,28.3 µM
same,GI50,RXF 393 renal,14.1 µM
same,TGI,RXF 393 renal,33.5 µM
same,GI50,SF-268 CNS,14.5 µM
same,TGI,SF-268 CNS,34.1 µM
same,GI50,SF-295 CNS,21.7 µM
same,TGI,SF-295 CNS,40.3 µM
same,GI50,SF-539 CNS,19.9 µM
same,TGI,SF-539 CNS,35.7 µM
same,GI50,SK-MEL-2 melanoma,16.6 µM
same,TGI,SK-MEL-2 melanoma,33.4 µM
same,GI50,SK-MEL-28 melanoma,17.4 µM
same,TGI,SK-MEL-28 melanoma,34.3 µM
same,GI50,SK-MEL-5 melanoma,15.4 µM
same,TGI,SK-MEL-5 melanoma,29.9 µM
same,GI50,SK-OV-3 ovarian,22.4 µM
same,TGI,SK-OV-3 ovarian,41 µM
same,GI50,SN12C renal,12.4 µM
same,TGI,SN12C renal,26.1 µM
same,GI50,SNB-19 CNS,19.6 µM
same,TGI,SNB-19 CNS,41.4 µM
same,GI50,SNB-75 CNS,15 µM
same,TGI,SNB-75 CNS,30 µM
same,GI50,SR leukemia,14.3 µM
same,TGI,SR leukemia,30.5 µM
same,GI50,SW-620 colon,17.5 µM
same,TGI,SW-620 colon,33.3 µM
same,GI50,T-47D breast,13.4 µM
same,TGI,T-47D breast,29.6 µM
same,GI50,TK-10 renal,20 µM
same,TGI,TK-10 renal,41.9 µM
same,GI50,U251 CNS,18.5 µM
same,TGI,U251 CNS,36 µM
same,GI50,UACC-257 melanoma,18.4 µM
same,TGI,UACC-257 melanoma,37.8 µM
same,GI50,UACC-62 melanoma,18.9 µM
same,TGI,UACC-62 melanoma,34.2 µM
same,GI50,UO-31 renal,14.8 µM
same,TGI,UO-31 renal,29.9 µM
